Measurements as given in US5071848A, “Tricyclic quinoline antineoplastic agents” (Abbott Laboratories, priority 1989, dated 1991).
In brackets after ≈: the same amount, converted by molar mass.

What was measured:
DNA topoisomerase II = assay: DNA Breakage Assay: topoisomerase II-mediated DNA breakage (linearized 32P-labeled PBR 322 plasmid, agarose gel); assay type: biochemical, calf; set-up: key to Topoisomerase II-mediated DNA breakage, extent of breakage: SB: strong breakage; MB: moderate breakage; WB: weak breakage; conditions: for Topoisomerase II-mediated DNA breakage, extent of breakage: at the concentration given; for Topoisomerase II-mediated DNA breakage, Concentration: concentration of compound which cleaves the DNA to smaller fragments, 30 minutes incubation
Procedure: Antitumor activity was assayed using the DNA Breakage Assay described below.
The DNA breakage assay requires two major reagents: DNA topoisomerase II and radiolabeled DNA. DNA topoisomerase II (topo II) was isolated from calf thymus as described by B. D. Holligan, et al. in J. Biol. Chem., 260, 2475-2482 (1985). Pure enzyme or partially purified extracts enriched in topo II activity may be used. PBR 322 plasmid was used as the DNA substrate. This plasmid, which is isolated in the closed circular form, is first linearized using, a restriction enzyme which cuts the plasmid in only one place. The newly exposed ends of the plasmid are then labeled with the radionuclide, 32P, using standard techniques described by T. Maniatis, et al. in "Molecular Cloning", Cold Spring Harbor Press, p. 115 (1982).
The enzyme and the radiolabeled DNA are added together first, then drug is added. After an incubation period of 30 minutes, the mixtures are quenched using 1% SDS. The mixtures are then subjected to agarose gel electrophoresis which separates the full length, linear substrate DNA from any small fragments that might be formed as a consequence of drug action. Smaller fragments run with a higher mobility. The distribution of the DNA species in the gel is assessed by autoradiography as described by T. Maniatis, et al. in "Molecular Cloning", Cold Spring Harbor Press, p. 115 (1982).
DNA breakage activity is assessed based on the level of substrate lost, the level of DNA appearing as smaller pieces running faster in the gel, and the distribution of these smaller pieces in the gel. The last criterion is important since drug-induced DNA cleavage that is enzyme-mediated fragmentation results in specific banding patterns due to the fact that the enzyme binds to specific sequences along the DNA molecule. A definite banding pattern is thus indicative of topo II-mediated cleavage and correlates well with anti-tumor activity.

Hela cells = assay: In vitro cytotoxicity assay (three day MTT microtiter assay), Hela; assay type: cell-based; conditions: Homo sapiens, 72 h; Hela cells, three days, MTT; read-out: In vitro tumor cell cytotoxicity (IC50), Hela
Procedure: IC50 's were measured in a colorimetric assay for cytotoxic activity against cultured cells according to the protocol described below:
A three day microtiter assay is used to measure the growth inhibition of cultured cells exposed to a range of drug concentrations. Metabolic activity is measured by the cell's ability to reduce the tetrazolium dye, MTT (3-(4,5-dimethylthiazol-2-yl)-2,5-diphenyltetrazolium bromide) to a quantifiable colored end-product, which absorbs at 570 nm in the visible spectrum. Surviving cells reduce the MTT dye.
Test compounds are dissolved in dimethyl sulfoxide (DMSO) and diluted, first with Earle's Balanced Salt Solution, followed by culture medium, to twice the highest concentration of compound to be tested. From this concentrated stock, two-fold serial dilutions are prepared in 96-well microtiter trays, each well containing twice the desired final concentration of compound. Each concentration is tested in triplicate and compared to triplicate drug-free controls.
The cells are grown in the same medium used for diluting the compounds. After harvesting by trypsinization*, viable cell counts are determined and cell density is adjusted to 25,000 cells/mL. Inoculum (0.1 mL), containing the cells, is then added to each well for a final concentration of 2,500 cells per well. Addition of the inoculum dilutes the test compounds to the desired final concentration.
*Adherent cells are harvested by trypsinization as follows:
1. Remove the medium by aspiration.
2. Rinse cell monolayer twice with Earle's Balanced Salt Solution.
3. Add trypsin (0.05%)/EDTA (0.53 mM). For each 25 cm^2 use approximately 0.2 mL of solution, tilt to cover the monolayer, then withdraw trypsin leaving only a thin film of solution. Incubate at room temperature until cell monolayer detaches.
4. When the cells have detached as determined by visual and/or microscopic observation, add medium containing fetal calf serum to stop the action of the trypsin and resuspend the cells. Triturate to aid dissociation of cell clumps.
5. Determine the number of cells per milliliter by electronic cell counter (e.g. Coulter Counter) or by mixing an aliquot of cell suspension with Trypan Blue (0.4% in normal saline) and counting the viable cells using a hemacytometer.
Microtiter trays are incubated for three days at 36° C. in a humidified atmosphere containing 5% carbon dioxide.
After three days, 20 microtiters of 5 mg/mL MTT in phosphate-buffered saline solution is added to each well. Trays are returned to the incubator for two to four hours to allow the surviving cells to reduce the dye. Medium and unreduced dye are removed by aspiration. DMSO is added to each well to dissolve the water insoluble, colored end product of the dye reduction so that it can be measured spectrophotometrically at 570 nm.

P388 Leukemia = assay: In vivo antitumor activity, P388 Leukemia, increased lifespan; set-up: species or system BDF1 mice; conditions: IP, day 1 to day 5, survival monitored 30 days
Procedure: The in vivo data presented in Table 7 was determined in BDF1 mice for two murine cancer models, using 6 to 10 animals per test group. In the case of Lewis Lung carcinoma (LL) the mice are inoculated subcutaneously (SC) in the axillary region with a puncture in the inguinal area with the tumor on day 0. The compound being tested is administered intraperitoneally (IP) from day 1 to day 9 for a total of nine injections. The tumors are weighed on day 14 and the weight inhibition expressed as the median weight ratio of treated (T) to control (C) tumors. In the case of P388 Leukemia cells, a suspension of diluted ascites fluid (0.1 mL) containing 1×10^6 cells is implanted IP into the mice on day 0 and the compound being tested is administered IP from day 1 to day 5 for a total of five injections. Survival was monitored for 30 days and the increased lifespan expressed as median survival time of treated (T) to control (C) mice.

Structure (SMILES)	Topoisomerase II-mediated DNA breakage, extent of breakage (DNA topoisomerase II)	Topoisomerase II-mediated DNA breakage, Concentration (DNA topoisomerase II) [µg/mL]	IC50 (Hela cells) [µg/mL]	also measured
CNC1CCN(c2cc3c(cc2F)c(=O)c2c(=O)[nH]sc2n3C2CC2)C1 (stereo not drawn) [Example 25]	WB	64		
CCn1c2cc3c(cc2c(=O)c2c(=O)[nH]sc21)OCO3 [Example 29, 9-Ethyl-6,7-methylenedioxy-2,3,4,9-tetrahydroisothiazolo[5,4-b]quinoline-3,4-dione]	WB	128		
CCn1c2s[nH]c(=O)c2c(=O)c2cc(F)c(N3CCNC(C)C3)c(F)c21 (stereo not drawn) [Example 15]	MB	128		
CCn1c2s[nH]c(=O)c2c(=O)c2cc(F)c(N3CCN(C)CC3)c(F)c21 [Example 16]	MB	32 to 64		
O=c1[nH]sc2c1c(=O)c1cc(F)c(N3CCC(O)C3)cc1n2C1CC1 (stereo not drawn) [Example 23]	WB	32 to 128		
O=c1[nH]sc2c1c(=O)c1cc(F)c(NC3CCN(Cc4ccccc4)CC3)c(F)c1n2C1CC1 [Example 13]			0.55 (≈ 1.14 µM)	
O=c1[nH]sc2c1c(=O)c1cc(F)c(N3CCNCC3)cc1n2C1CC1 [Example 19, 9-Cyclopropyl-6-fluoro-7-(1-piperazinyl)-2,3,4,9-tetrahydroisothiazolo[5,4-b]quinoline-3,4-dione]	MB	64		
CC1CN(c2cc3c(cc2F)c(=O)c2c(=O)[nH]sc2n3C2CC2)CCN1C (stereo not drawn) [Example 22]	WB	128		

More lines, main results first:

Topoisomerase II-mediated DNA breakage, extent of breakage (DNA topoisomerase II)	Topoisomerase II-mediated DNA breakage, Concentration (DNA topoisomerase II) [µg/mL]	Structure (SMILES)	IC50 (Hela cells) [µg/mL]	also measured
WB	64	O=c1[nH]sc2c1c(=O)c1cc(F)c(N3CCCC3)c(F)c1n2C1CC1 [Example 32]		
MB	32	O=c1[nH]sc2c1c(=O)c1cc(F)c(N3CCCCC3)c(F)c1n2C1CC1 [Example 8]	3.9 (≈ 10.3 µM)	
WB	32 to 64	CCn1c2s[nH]c(=O)c2c(=O)c2cc(F)c(N3CCC(N)C3)c(F)c21 (stereo not drawn) [Example 17]		
SB	32	O=c1[nH]sc2c1c(=O)c1cc(F)c(N3CCOCC3)c(F)c1n2C1CC1 [Example 1, 9-Cyclopropyl-6,8-difluoro-7-(1-morpholino)-2,3,4,9-tetrahydroisothiazolo[5,4-b]quinoline-3,4-dione]	7 (≈ 18.5 µM)	P388 Leukemia % T/C, median lifespan of treated compared to control mice (P388 Leukemia; 31.25 mg/kg): 104%; P388 Leukemia % T/C, median lifespan of treated compared to control mice (P388 Leukemia; 62.5 mg/kg): 100%; P388 Leukemia % T/C, median lifespan of treated compared to control mice (P388 Leukemia; 125 mg/kg): 108%; P388 Leukemia % T/C, median lifespan of treated compared to control mice (P388 Leukemia; 250 mg/kg): 108%
SB	32	CN1CCN(c2c(F)cc3c(=O)c4c(=O)[nH]sc4n(C4CC4)c3c2F)CC1 [Example 4]	1.3 (≈ 3.31 µM)	
MB	64	O=c1[nH]sc2c1c(=O)c1cc(F)c(N3CCN(CCO)CC3)c(F)c1n2C1CC1 [Example 5]	4 (≈ 9.47 µM)	P388 Leukemia % T/C, median lifespan of treated compared to control mice (P388 Leukemia; 2.5 mg/kg): 125%; P388 Leukemia % T/C, median lifespan of treated compared to control mice (P388 Leukemia; 5 mg/kg): 129%; P388 Leukemia % T/C, median lifespan of treated compared to control mice (P388 Leukemia; 10 mg/kg): 142%; P388 Leukemia % T/C, median lifespan of treated compared to control mice (P388 Leukemia; 12.5 mg/kg): 117%
